Among the data in ChEMBL document CHEMBL4811289, “Antibacterial and Cytotoxic Phenyltetracenoid Polyketides from Streptomyces morookaense” (J Nat Prod, 2021) are IC50 and MIC values, retold here.

Test [1] deals with MCF7. The test can be described thus: Cytotoxicity against human MCF7 cells assessed as reduction in cell viability after 72 hrs by MTT assay. The settings on record: Homo sapiens, MCF7, 72 h. The format is functional, cell-based.
Test [2] deals with Enterococcus faecium. Kind of test: Antibacterial activity against vancomycin-resistant Enterococcus faecium incubated for 6 to 8 hrs by MABA. The settings on record: time 6-8 hrs. The format is functional.
In test [3] the test system is A549. The test can be described thus: Cytotoxicity against human A549 cells assessed as reduction in cell viability after 72 hrs by MTT assay. The format is functional, cell-based. Conditions: Homo sapiens, A549, 72 h.
For test [4], the system named is Staphylococcus aureus. Kind of test: Antibacterial activity against methicillin-resistant Staphylococcus aureus ATCC 6548 incubated for 6 to 8 hrs by MABA. The format is functional. The settings on record: time 6-8 hrs.
Test [5] concerns HeLa. The test can be described thus: Cytotoxicity against human HeLa cells assessed as reduction in cell viability after 72 hrs by MTT assay. The format is functional, cell-based. Conditions: Homo sapiens, HeLa, 72 h.
The test system of test [6] is HepG2. The test can be described thus: Cytotoxicity against human HepG2 cells assessed as reduction in cell viability after 72 hrs by MTT assay. The settings on record: Homo sapiens, HepG2, 72 h. The format is functional, cell-based.
Test [7] deals with Staphylococcus aureus. Kind of test: Antibacterial activity against methicillin-sensitive Staphylococcus aureus incubated for 6 to 8 hrs by MABA. The format is functional. Conditions: time 6-8 hrs.
Test [8] deals with Vero. The test can be described thus: Cytotoxicity against African green monkey Vero cells assessed as reduction in cell viability after 72 hrs by MTT assay. The format is cell-based, Chlorocebus sabaeus. Conditions: Chlorocebus sabaeus, Vero, 72 h.
The subject of test [9] is Enterococcus faecium. The test can be described thus: Antibacterial activity against vancomycin-sensitive Enterococcus faecium incubated for 6 to 8 hrs by MABA. The format is functional. Conditions: time 6-8 hrs.

Structures are written as SMILES. In brackets after ≈: the same amount, converted by molar mass.

As for `COc1cc(C)c(-c2cc(OC)c(Cl)c3cc4c(c(O)c23)C(=O)c2c(cc(O)c(Cl)c2O)C4(C)C)c(O)c1`, the concentration for half-maximal inhibition (IC50) in test [1] amounted to 7.6 µM; in test [3], 4.8 µM; in test [5], 6 µM; in test [6], 7.2 µM; in [8], 4.8 µM. Further, the minimal inhibitory concentration (MIC) in [2] came out at 2.5 µg/mL (≈ 4.5 µM); in [4], 1.25 µg/mL (≈ 2.25 µM); in test [7], 1.25 µg/mL (≈ 2.25 µM); in [9] it was 2.5 µg/mL (≈ 4.5 µM).
As to `COc1cc(-c2c(O)cc(O)c(Cl)c2C)c2c(O)c3c(cc2c1)C(C)(C)c1cc(OC)c(Cl)c(O)c1C3=O`, the half-inhibitory concentration (IC50) was 10.7 µM in test [1]; 6.4 µM in [3]; 5.3 µM in [5]; 7.3 µM in test [6]; 13.7 µM in test [8]. Moreover, the MIC in test [2] turned out to be 5 µg/mL (≈ 9 µM); in [4], 1.25 µg/mL (≈ 2.25 µM); in test [7], 2.5 µg/mL (≈ 4.5 µM); in test [9], 1.25 µg/mL (≈ 2.25 µM).
`COc1cc(C)c(-c2cc(OC)cc3cc4c(c(O)c23)C(=O)c2c(O)cc(O)cc2C4(C)C)c(O)c1`: the IC50 in test [1] stood at 7.1 µM; in [3] it was 3.3 µM; in test [5], 4.7 µM; in test [6], 4.4 µM; in test [8], 6.4 µM. Also, the minimum inhibitory concentration (MIC) in test [2], in [4], in test [7] and in [9] was 1.25 µg/mL (≈ 2.57 µM) in each case.
As to `COc1cc(C)c(-c2cc(O)cc3cc4c(c(O)c23)C(=O)c2c(cc(O)c(Cl)c2O)C4(C)C)c(O)c1`, the half-inhibitory concentration (IC50) in [1] was 40.3 µM; in [3], 13.3 µM; in [5] it was 15.2 µM; in [6], 11.9 µM; in test [8] it was 33 µM. The MIC in [2] turned out to be 10 µg/mL (≈ 19.7 µM); in test [4], 5 µg/mL (≈ 9.86 µM); in [7], 5 µg/mL (≈ 9.86 µM); in test [9], 2.5 µg/mL (≈ 4.93 µM).
Take `COc1cc2c(c(O)c1Cl)C(=O)c1c(cc3c(Cl)c(O)cc(-c4c(C)c(Cl)c(OC)c(Cl)c4O)c3c1O)C2(C)C`: the 50% inhibitory concentration (IC50) in [1] turned out to be 13.9 µM; in test [3], 5.6 µM; in test [5], 9.9 µM; in test [6], 8.8 µM; in [8], 12 µM. The minimal inhibitory concentration (MIC) came to 5 µg/mL (≈ 8.01 µM) in test [2], 2.5 µg/mL (≈ 4 µM) in [4], 2.5 µg/mL (≈ 4 µM) in test [7] and 2.5 µg/mL (≈ 4 µM) in test [9].
With `COc1cc(C)c(-c2cc(OC)cc3cc4c(c(O)c23)C(=O)c2c(cc(O)c(Cl)c2O)C4(C)C)c(O)c1`, the 50% inhibitory concentration (IC50) in [1] was 24.3 µM; in [3], 5.6 µM; in [5] it was 7 µM; in test [6] it was 12.1 µM; in test [8], 18.9 µM. Besides, the MIC was 5 µg/mL (≈ 9.6 µM) in [2], 2.5 µg/mL (≈ 4.8 µM) in test [4], 2.5 µg/mL (≈ 4.8 µM) in test [7] and 2.5 µg/mL (≈ 4.8 µM) in [9].
